We go through nine compounds from PubChem BioAssay (NCI).

Among the test systems are HCC-2998 colon; EKVX NSCLC; HOP-62 NSCLC; SF-539 CNS; OVCAR-3 ovarian; TK-10 renal; ACHN renal; HL-60(TB) leukemia.
Holding throughout (test): NCI anticancer screen, dose series, 48 h

Structures are written as SMILES.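 Protocol summary: plate cells (96-well), add compound at 5 concentrations, incubate 48 h, interpolate endpoints linearly. The concentration for 50% growth inhibition is given as GI50. TGI: total growth inhibition.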 Where a SMILES comes first, the peptide text is derived from it. Bridges are numbered along the chain shown (N, C = ends). Bounds are passed on as bounds.

Consider `CC[C@H](C)C(=O)O[C@H]1CCC=C2C=C[C@H](C)[C@H](CC[C@@H]3C[C@@H](O)CC(=O)O3)[C@H]21`, for which the GI50 in the assay with HCC-2998 colon was 36.9 µM; with EKVX NSCLC, 7.93 µM; in the assay with HOP-62 NSCLC, 12.4 µM; in the assay with SF-539 CNS, 12.8 µM; in the assay on TK-10 renal it was 22.5 µM; in the assay on ACHN renal, 1.46 µM. For the same compound, in the assay on HL-60(TB) leukemia, the GI50 was 17.1 µM. For the same compound, the TGI with HCC-2998 colon, with EKVX NSCLC, with HOP-62 NSCLC, in the assay with SF-539 CNS, in the assay with OVCAR-3 ovarian and with TK-10 renal was above 100 µM in each case. In addition, the TGI with ACHN renal is 5.18 µM; in the assay with HL-60(TB) leukemia it was 76.5 µM.

As for `CCc1c2c(nc3ccc(OC(=O)OCc4ccc(B5OC(C)(C)C(C)(C)O5)cc4)cc13)-c1cc3c(c(=O)n1C2)COC(=O)[C@]3(O)CC`, the GI50 with HCC-2998 colon was 0.0661 µM; in the assay on EKVX NSCLC it was 0.345 µM; in the assay on HOP-62 NSCLC it was below 0.01 µM; in the assay on SF-539 CNS it was below 0.01 µM; in the assay on OVCAR-3 ovarian, 0.0716 µM; in the assay on TK-10 renal, 0.88 µM. In addition, the GI50 is below 0.01 µM in the assay with ACHN renal and 0.0121 µM in the assay on HL-60(TB) leukemia. Moreover, the TGI in the assay on HCC-2998 colon was 3.86 µM; with EKVX NSCLC, above 55.2 µM; with HOP-62 NSCLC, 3.27 µM; in the assay with SF-539 CNS, 0.0286 µM; in the assay on OVCAR-3 ovarian, 1.46 µM; with TK-10 renal it was above 100 µM. The TGI came to 0.432 µM in the assay on ACHN renal and 22.3 µM in the assay on HL-60(TB) leukemia.

For the compound `COc1ccc(C(=O)/C=C/c2c(C(F)(F)F)nc3ccccn23)cc1OC`, the GI50 is 0.553 µM in the assay on HCC-2998 colon; 3.39 µM in the assay on EKVX NSCLC; 3.38 µM in the assay on HOP-62 NSCLC; 2.14 µM in the assay on SF-539 CNS; 2.28 µM in the assay with OVCAR-3 ovarian; 2.07 µM with TK-10 renal. The GI50 in the assay with ACHN renal is 2.6 µM; with HL-60(TB) leukemia it was 0.758 µM. Moreover, the TGI with HCC-2998 colon is 2.23 µM; with EKVX NSCLC, above 100 µM; in the assay with HOP-62 NSCLC, above 28.4 µM; in the assay with OVCAR-3 ovarian, 6.09 µM; with TK-10 renal, above 20.6 µM; in the assay with ACHN renal, above 39.5 µM. In the assay with HL-60(TB) leukemia, this compound returned a TGI of 2.64 µM.

Regarding `O=c1oc2ccc(I)cc2c(=O)n1-c1ccc(I)cc1F`, the GI50 was 2.8 µM in the assay on HCC-2998 colon; 1.15 µM in the assay with EKVX NSCLC; 2.36 µM in the assay on HOP-62 NSCLC; 0.484 µM with SF-539 CNS; 0.44 µM with OVCAR-3 ovarian; 1.42 µM in the assay on TK-10 renal. The results for the GI50 with ACHN renal and in the assay on HL-60(TB) leukemia were 0.616 µM and 0.564 µM, respectively. Also, the TGI in the assay on HCC-2998 colon is 11.1 µM; in the assay with EKVX NSCLC it was 8.21 µM; with HOP-62 NSCLC it was 9.46 µM; in the assay with SF-539 CNS, 4.29 µM; in the assay with OVCAR-3 ovarian, 9.75 µM; in the assay with TK-10 renal it was 11.8 µM. Moreover, the TGI with ACHN renal was 11.7 µM.

Regarding `Cc1nccc2c3ccc(OCc4cn(-c5ccc(Br)cc5)nn4)cc3n(CCCc3ccccc3)c12`, the GI50 with HCC-2998 colon was above 100 µM; in the assay on EKVX NSCLC, above 100 µM; in the assay with HOP-62 NSCLC, 3.16 µM; with SF-539 CNS, 1.72 µM; with OVCAR-3 ovarian it was above 100 µM; in the assay with TK-10 renal, 1.62 µM. Besides, the GI50 in the assay on ACHN renal is 1.23 µM; in the assay with HL-60(TB) leukemia, 6.53 µM. Besides, the TGI was above 100 µM in the assay with HCC-2998 colon; above 100 µM with EKVX NSCLC; 29.6 µM in the assay on HOP-62 NSCLC; 3.4 µM with SF-539 CNS; above 100 µM with OVCAR-3 ovarian; 3.29 µM in the assay with TK-10 renal. Besides, the TGI was 3.52 µM with ACHN renal and above 100 µM in the assay with HL-60(TB) leukemia.

For the compound `COc1cc2c(cc1OC)-c1c(c3ccc([N+](=O)[O-])cc3c(=O)n1CCCN=[N+]=[N-])C2=O`, the GI50 in the assay on HCC-2998 colon was 83.9 µM; in the assay with EKVX NSCLC, above 100 µM; with HOP-62 NSCLC, 29.8 µM; in the assay on SF-539 CNS, 36.4 µM; in the assay with OVCAR-3 ovarian, above 100 µM; in the assay on TK-10 renal, above 100 µM. Further, the values for the GI50 with ACHN renal and in the assay with HL-60(TB) leukemia were 19.4 µM and 73 µM, respectively. For the same compound, the TGI with HCC-2998 colon, in the assay with EKVX NSCLC, in the assay on HOP-62 NSCLC, in the assay with SF-539 CNS, with OVCAR-3 ovarian and in the assay on TK-10 renal was above 100 µM each time. Also, the TGI in the assay on ACHN renal and in the assay on HL-60(TB) leukemia was above 100 µM in each case.

For the compound `CCc1nc(N)nc(N)c1-c1ccc(N(C)Cc2ccccc2)c([N+](=O)[O-])c1`, the TGI was 8.73 µM in the assay with HCC-2998 colon; 35 µM with EKVX NSCLC; 14.3 µM in the assay on HOP-62 NSCLC; 9.97 µM in the assay on SF-539 CNS; 22.6 µM in the assay on OVCAR-3 ovarian; 34.2 µM with TK-10 renal. Further, the TGI was 36.1 µM in the assay on ACHN renal and 5.88 µM with HL-60(TB) leukemia.

For `COc1cc(C(=O)c2cnc(-c3ccc4cc[nH]c4c3)[nH]2)cc(OC)c1OC`, the GI50 with HCC-2998 colon is 0.117 µM; in the assay on EKVX NSCLC, 0.0721 µM; with HOP-62 NSCLC it was 0.0354 µM; with SF-539 CNS, 0.0214 µM; in the assay with OVCAR-3 ovarian, 0.0195 µM; with TK-10 renal, 0.34 µM. For the same compound, the GI50 in the assay with ACHN renal was 0.0973 µM; with HL-60(TB) leukemia, 0.0224 µM. Further, the TGI worked out at 4.02 µM with HCC-2998 colon; 19.7 µM in the assay on EKVX NSCLC; 6.5 µM with HOP-62 NSCLC; 0.0623 µM with SF-539 CNS; 0.0477 µM in the assay with OVCAR-3 ovarian; 12.4 µM in the assay on TK-10 renal. Also, the TGI was found to be 6.11 µM with ACHN renal and 0.0535 µM with HL-60(TB) leukemia.

With `CCC(C)C1NC(=O)C(CC(C)C)NC(=O)C(C(C)C)NC(=O)C2CSSCC(NC1=O)C(=O)N2` (stereo not given) (cyclo(CCVLI); disulfide 1-2; configuration not given here), the TGI with HCC-2998 colon is 0.216 µM; in the assay on EKVX NSCLC, 0.452 µM; with HOP-62 NSCLC, 0.554 µM; in the assay with SF-539 CNS, 0.316 µM; with OVCAR-3 ovarian, 0.395 µM; in the assay on TK-10 renal it was 1.93 µM. Further, the TGI in the assay with ACHN renal came to 1.82 µM; in the assay with HL-60(TB) leukemia it was 0.339 µM.
